From patent publication US20260258025A1, “INHIBITORS OF TDP-43 AND TAU AGGREGATION” (Aquinnah Pharmaceuticals, inc., priority 2023, published 2026)

Assays:
TDP-43 aggregation = TDP-43 aggregation assay in SY5Y TDP-43WT cells (high content imaging); assay type: cell-based; conditions: Homo sapiens, tetracycline induction 24 hrs, 1 hour compound pre-treatment, sodium arsenite 23 hrs, 8-point dose curve, percentage of cells with TDP-43 aggregates, read-out: IC50, Inhibition of TDP-43 Aggregation
Method in brief: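 Tetracycline-inducible eGFP-tagged wild-type human TDP-43 in SH-SY5Y cells, induced 24 h ([…]), compound pre-treated 1 h, then sodium arsenite […] for 23 h. Fixed cells imaged; percentage of DAPI-counted cells with aggregates gives IC50 from 8-point curves.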

tau stress granules = test: SY5Y-tT1 tau arsenite assay (tau stress granules per cell); assay type: cell-based; conditions: SY5Y-tT1 cells, 2 hours compound, 90 minutes arsenite, 50% reduction of granules per cell, read-out: IC50, Inhibitor Activity of Tau Stress Granules
Experimental: Example 91: In Vitro Efficacy Assay of Exemplary Compounds—SY5Y-tT1 Tau Arsenite/Thapsigargin Assay
• Before harvesting cells—checked to see if cells are ~80% confluency in their flask • 1. Aspirated growth media from flask. • 2. Added 4 mL of (0.25%) trypsin-EDTA (REF: 25200-056) • 3. Placed in 37° C. incubator for 5 minutes. • 4. Removed from incubator and added 11 mL growth media, washing any remaining cells adhered to the bottom of the flask. • 5. Transferred cell containing media to a 50 mL conical tube and spun for 5 minutes at 800 rpm. • 6. Aspirated supernatant and added 5 mL of growth media to cell pellet, triturating to make a homogenous cell solution. • 7. After counting cells, followed one of these plating paradigms: • (A) If treating with arsenite, plated cells at […] with tetracycline solution (5 mg/mL) added to cell solution at 1:5000 • (B) If treating with thapsigargin, plated cells at 4,000 cells/well with tetracycline solution (5 mg/mL) added to cell solution at 1:5000 • 8. Incubated at 37° C. for 48 hours.
• Solubilized all compounds to 10 mM prior to making dilution plates • 1. To a 96-well U-bottom plate (Falcon Non-Tissue Culture Treated Plates REF: 351177) added 120 μL growth media to all 96 wells, with an additional 58.2 μL to row A. • 2. Added 1.8 μL of 10 mM compound stock to wells A1-11, adding 1.8 μL of 10 mM PERKi stock (Selleck Chemistry GSK2606414 Cat No. S7307) as the control. • 3. Serially diluted 60 μL from row A down through each row, finishing with 180 μL total volume in row H. • 4. Transferred 12.5 μL of each dilution plate well to the correlating wells in cell plate, being careful not to touch cells adhered to bottom of the plate. • 5. Incubated for 2 hours.
• 1. Added 720 μL of 0.05 M sodium arsenite solution (CAS #: 7784-46-5) to 10 mL of growth media for a final concentration of […] arsenite solution, mix well. • 2. Added 12.5 μL of arsenite solution to all wells of compounds treated plate intended for arsenite treatment. • 3. Incubated at 37° C. for 90 minutes.
• Before beginning this part of the protocol: • Made 1×PBS by diluting 10× stock (10×, Phosphate buffered saline, Fisher #BP399— • 4) in sterile deionized water. • Diluted paraformaldehyde (16% Paraformaldehyde solution, Electron Microscopy Sciences #15710-S) to 4% in 1×PBS. • Diluted Hoechst stain (Life Technologies #H3570) 1:10,000 in 1×PBS (1 μL Hoechst per 10 mL 1×PBS). • Both solutions were protected from light. • 1) After compound treatment, aspirated media from cell plates and gently added in 50 μL of 4% paraformaldehyde for 10 min protected from light at room temperature. • 2) Aspirated paraformaldehyde solution and gently added 50 μL of 1:10,000 Hoechst solution to each well and incubated for 10 min protected from light at room temperature. • 3) Aspirated Hoechst solution and gently added 100 μL 1×PBS. Cover the plate with aluminum film (VWR #60941-126). • 4) Stored at 4° C. or used immediately for imaging on ThermoFisher CX7 imager.
Exemplary compounds of the disclosed herein were evaluated for efficacy for inhibitor activity of tau stress granules in the arsenite assay and quantified as drug concentration providing a 50% reduction (IC50) of granules per cell is shown in Table 4.
In Table 4 below, A indicates an IC50 (μM)<0.5 μM, B indicates an IC50 (μM) 0.5 μM to <1 μM, C indicates an IC50 (μM) 1 μM to <2 μM, and D indicates an IC50 (μM) 2 μM to <6 μM.

Structure (SMILES) | IC50 (TDP-43 aggregation) [nM] | IC50 (tau stress granules) [nM]
Cc1cc(-c2ccc(C3CCN(C)CC3)c(F)c2)sc1C(=O)N1CC[C@H](N)C1 [Compound 136, (S)-(3-aminopyrrolidin-1-yl)(5-(3-fluoro-4-(1-methylpiperidin-4-yl)phenyl)-3-methylthiophen-2-yl)methanone] | < 500 | < 500
Cc1cc(-c2ccc(C3CCN(CC4CCCOC4)CC3)cc2)sc1C(=O)N1CC[C@H](N)C1 (stereo partly drawn) [Compound 139, ((S)-3-aminopyrrolidin-1-yl)(3-methyl-5-(4-(1-((tetrahydro-2H-pyran-3-yl)methyl)piperidin-4-yl)phenyl)thiophen-2-yl)methanone] | < 500 | 500 to 1000
COCCCN1CCC(c2ccc(-c3cc(C)c(C(=O)N4CC[C@H](N)C4)s3)cc2)CC1 [Compound 141, (S)-(3-aminopyrrolidin-1-yl)(5-(4-(1-(3-methoxypropyl)piperidin-4-yl)phenyl)-3-methylthiophen-2-yl)methanone] | < 500 | 500 to 1000
COCCN1CCC(c2ccc(-c3cc(C)c(C(=O)N4CC[C@H](N)C4)s3)cc2)CC1 [Compound 142, (S)-(3-aminopyrrolidin-1-yl)(5-(4-(1-(2-methoxyethyl)piperidin-4-yl)phenyl)-3-methylthiophen-2-yl)methanone] | < 500 | 500 to 1000
CCN1CCN(c2ccc(-c3cc(C)c(C(=O)N4CC[C@H](N)C4)s3)cc2)CC1 [Compound 155, (S)-(3-aminopyrrolidin-1-yl)(5-(4-(4-ethylpiperazin-1-yl)phenyl)-3-methylthiophen-2-yl)methanone] | < 500 | 500 to 1000
Cc1cc(-c2ccc(C3CCN(C4CCS(=O)(=O)CC4)CC3)cc2)sc1C(=O)N1CC[C@H](N)C1 [Compound 156, (S)-(3-aminopyrrolidin-1-yl)(5-(4-(1-(1,1-dioxidotetrahydro-2H-thiopyran-4-yl)piperidin-4-yl)phenyl)-3-methylthiophen-2-yl)methanone] | < 500 | < 500
CCN1CCC(c2ccc(-c3cc(C)c(C(=O)N4CC[C@H](N)C4)s3)cc2)CC1 [Compound 176, (S)-(3-aminopyrrolidin-1-yl)(5-(4-(1-ethylpiperidin-4-yl)phenyl)-3-methylthiophen-2-yl)methanone] | < 500 | 500 to 1000
Cc1cc(-c2ccc(C3CCN(C4CCOCC4)CC3)cc2)sc1C(=O)N1CC[C@H](N)C1 [Compound 178, (S)-(3-aminopyrrolidin-1-yl)(3-methyl-5-(4-(1-(tetrahydro-2H-pyran-4-yl)piperidin-4-yl)phenyl)thiophen-2-yl)methanone] | < 500 | < 500
Cc1cc(-c2ccc(C3CCN(C4CCCCC4)CC3)cc2)sc1C(=O)N1CC[C@H](N)C1 [Compound 179, (S)-(3-aminopyrrolidin-1-yl)(5-(4-(1-cyclohexylpiperidin-4-yl)phenyl)-3-methylthiophen-2-yl)methanone] | < 500 | 500 to 1000
Cc1cc(-c2ccc(C3CCN(C4CCCC4)CC3)cc2)sc1C(=O)N1CC[C@H](N)C1 [Compound 180, (S)-(3-aminopyrrolidin-1-yl)(5-(4-(1-cyclopentylpiperidin-4-yl)phenyl)-3-methylthiophen-2-yl)methanone] | < 500 | < 500
Cc1cc(-c2ccc(C3CCN(C4CCC4)CC3)cc2)sc1C(=O)N1CC[C@H](N)C1 [Compound 181, (S)-(3-aminopyrrolidin-1-yl)(5-(4-(1-cyclobutylpiperidin-4-yl)phenyl)-3-methylthiophen-2-yl)methanone] | < 500 | 500 to 1000
CCCN1CCC(c2ccc(-c3cc(C)c(C(=O)N4CC[C@H](N)C4)s3)cc2)CC1 [Compound 182, (S)-(3-aminopyrrolidin-1-yl)(3-methyl-5-(4-(1-propylpiperidin-4-yl)phenyl)thiophen-2-yl)methanone] | < 500 | < 500
Cc1cc(-c2ccc3c(c2)CNCC3)sc1C(=O)N1CC[C@H](N)C1 [Compound 198, (S)-(3-aminopyrrolidin-1-yl)(3-methyl-5-(1,2,3,4-tetrahydroisoquinolin-7-yl)thiophen-2-yl)methanone] | < 500 | 2000 to 6000
Cc1cc(-c2ccc3c(c2)CCNC3)sc1C(=O)N1CC[C@H](N)C1 [Compound 199, (S)-(3-aminopyrrolidin-1-yl)(3-methyl-5-(1,2,3,4-tetrahydroisoquinolin-6-yl)thiophen-2-yl)methanone] | < 500 | 2000 to 6000
Cc1cc(-c2ccc(C(C)N(C)C)cc2)sc1C(=O)N1CC[C@H](N)C1 (stereo partly drawn) [Compound 200, ((S)-3-aminopyrrolidin-1-yl)(5-(4-(1-(dimethylamino)ethyl)phenyl)-3-methylthiophen-2-yl)methanone] | < 500 | 2000 to 6000
Cc1cc(-c2ccc(C3CCN(C)CC3)cc2)sc1C(=O)N1CC[C@H](N)C1 [Compound 201, (S)-(3-aminopyrrolidin-1-yl)(3-methyl-5-(4-(1-methylpiperidin-4-yl)phenyl)thiophen-2-yl)methanone] | < 500 | < 500
